Converted amounts (≈) assume the structure as drawn.
Assay: Cytotoxicity against human HeLaS3 cells
Assay type: functional, cell-based
Settings: HeLa S3

Row | Structure (SMILES) | IC50
1 | CCC[C@H](C/C(C)=C/[C@H]1OC(=O)[C@@H](C)[C@@H](O)[C@H](C)CC[C@H](O)C[C@@H](OC(C)=O)C[C@@H](O)CC/C(C)=C/CCC[C@@H](O)C[C@H](O)[C@@H]1C)OC(C)=O [DOLABELIDE D] | 1.5 µg/mL (≈ 2.1 µM)
2 | CCC[C@H](C/C(C)=C/[C@H]1OC(=O)[C@@H](C)[C@@H](O)[C@H](C)CC[C@H](OC(C)=O)C[C@@H](OC(C)=O)C[C@@H](OC(C)=O)CC/C(C)=C/CCC[C@@H](O)C[C@H](O)[C@@H]1C)OC(C)=O [DOLABELIDE C] | 1.9 µg/mL (≈ 2.38 µM)
